Data reported in US7238812B2, “Tricyclic triazolobenzazepine derivatives, process for producing the same, and antiallergic agents” (Meji Seika Kaisha, Ltd., priority 1997, dated 2007).

How the values were obtained:
Assay type in all cases: in vivo
[1] = Oral absorption in rats: plasma level by HPLC, AUC; settings: equimolar amount, in 0.5% aqueous methylcellulose solution, area under plasma level vs time curve
Method: (§1) The compound of Synthesis Example 1, the compound of Example 7, and the compound of Example 20 were suspended or dissolved in a 0.5% aqueous methylcellulose solution. The resultant solutions were orally administered in an equimolar amount to dogs and rats. After the administration, the amount of each compound contained in plasma of each animal individual was quantitatively determined by HPLC. The absorption in each specimen was assayed by the area under a medicament level of plasma vs time curve (AUC). As a result, AUCs obtained by the compounds of Examples 7 and 20 as prodrugs were 3 to 4 times higher for the dog and 3 to 7 times higher for the rat compared with the compound of Synthesis Example 1 as an activator body.

[2] = Oral absorption in dogs: plasma level by HPLC, AUC; settings: equimolar amount, in 0.5% aqueous methylcellulose solution, area under plasma level vs time curve
Method: as §1

ICR male mice = ICR male mice (5 weeks old), dose of 2 g/kg, suspension in 0.5% aqueous methylcellulose solution
Source text: Acute Toxicity Test by Single Administration
The compound of Example 20 was homogeneously suspended in a 0.5% aqueous methylcellulose solution. The suspension was forcibly orally administered to ICR male mice (5 weeks old).

| Structure (SMILES) | AUC Rat [1] [µM·h] | AUC Dog [2] [µM·h] | Survival and abnormality after single forced oral administration (ICR male mice) |
| --- | --- | --- | --- |
| COc1cc2[nH]c(=O)c3nn(COC(=O)OC(C)C)nc3c(=O)c2cc1OC [Example 7, 2-(Isopropoxycarbonyloxymethyl)-7,8-dimethoxy-4(5H),10-dioxo-2H-1,2,3-triazolo[4,5-c][1]benzazepine] | 0.6 ± 0.1 | 0.9 ± 0.1 |  |
| COc1cc2[nH]c(=O)c3nn(C(OC(=O)OC(C)C)C(C)C)nc3c(=O)c2cc1OC (stereo not shown) [Example 20, 2-(1-Isopropoxycarbonyloxy-2-methylpropyl)-7,8-dimethoxy-4(5H),10-dioxo-2H-1,2,3-triazolo[4,5-c][1]benzazepine] | 1.4 ± 0.1 | 1.2 ± 0.3 | all the mice survived and developed no abnormality |
| COc1cc2[nH]c(=O)c3nn[nH]c3c(=O)c2cc1OC [Synthesis Example 1, 7,8-Dimethoxy-4(5H),10-dioxo-1H-1,2,3-triazolo[4,5-c][1]benzazepine, reference compound] | 0.2 ± 0.1 | 0.3 ± 0.1 |  |
